Assay results as given in publication PMC4138991, “Building a Better Dynasore: The Dyngo Compounds Potently Inhibit Dynamin and Endocytosis” (Traffic (Copenhagen, Denmark), 2013).
“Also recorded” adds a separate entry of the source.

What was measured:
[1] = system: Tfn-A594 uptake in U2OS cells; assay: Automated quantitative CME assay: Tfn-A594 uptake; type: cell-based; conditions: for CME IC50 (μM) / IC50: Tfn-A594 uptake, U2OS, 30-min preincubation, serum-free; for IC50: Homo sapiens, read-out: CME IC50
Method: To determine whether the Dyngo compounds are widespread cell‐permeable and endocytosis inhibitors, CME of fluorescent Tfn was compared in an automated quantitative endocytosis assay in U2OS cells. The assay consisted of over 1200 cells under serum‐free conditions; after preincubation with each analog for 30 min the uptake of fluorescent Tfn was measured. We refer to this endocytosis as non‐neuronal CME to distinguish it from CME of synaptic vesicles in presynaptic terminals of neurons, which is referred to as synaptic vesicle endocytosis (SVE). In these cells, Tfn uptake is presumed to be mediated by dynamin II, because this is the only isoform of dynamin that they express, as determined by western blot (Figure S6). […] There was no apparent correlation between in vitro and in‐cell activity, with potent dynamin‐active compounds like 1a and 14a having no effect on non‐neuronal CME (Table 1). This might be explained by low membrane permeability of these analogs, their cellular metabolism or rapid cellular efflux mechanisms.
Quantitative analysis of the inhibition of Alexa 594‐Tfn endocytosis in U2OS cells was performed on large numbers of serum‐starved cells as described 10. Synaptic vesicle recycling in cultured CGNs was monitored using FM1‐43 as described 57 (see Supporting Information). Dynamin‐independent endocytosis was measured using internalization of CT in NIH3T3 cells (using Tfn as a control) as described previously 58 with minor changes (see Supporting Information). The average number of cells for each data point was ˜1200. IC50 values were calculated using GraphPad Prism 5 and data were expressed as mean ± 95% confidence interval (CI) for three wells and ˜1200 cells.

[2] = biological target: native sheep brain dynamin I (Ovis aries, UniProt A0ACI6PDC7); assay: PS liposome-stimulated (helical) dynamin I GTPase assay (Malachite Green); type: biochemical; conditions: IC50 with versus without Tween-80
Sequence of native sheep brain dynamin I (A0ACI6PDC7 entry or part of it): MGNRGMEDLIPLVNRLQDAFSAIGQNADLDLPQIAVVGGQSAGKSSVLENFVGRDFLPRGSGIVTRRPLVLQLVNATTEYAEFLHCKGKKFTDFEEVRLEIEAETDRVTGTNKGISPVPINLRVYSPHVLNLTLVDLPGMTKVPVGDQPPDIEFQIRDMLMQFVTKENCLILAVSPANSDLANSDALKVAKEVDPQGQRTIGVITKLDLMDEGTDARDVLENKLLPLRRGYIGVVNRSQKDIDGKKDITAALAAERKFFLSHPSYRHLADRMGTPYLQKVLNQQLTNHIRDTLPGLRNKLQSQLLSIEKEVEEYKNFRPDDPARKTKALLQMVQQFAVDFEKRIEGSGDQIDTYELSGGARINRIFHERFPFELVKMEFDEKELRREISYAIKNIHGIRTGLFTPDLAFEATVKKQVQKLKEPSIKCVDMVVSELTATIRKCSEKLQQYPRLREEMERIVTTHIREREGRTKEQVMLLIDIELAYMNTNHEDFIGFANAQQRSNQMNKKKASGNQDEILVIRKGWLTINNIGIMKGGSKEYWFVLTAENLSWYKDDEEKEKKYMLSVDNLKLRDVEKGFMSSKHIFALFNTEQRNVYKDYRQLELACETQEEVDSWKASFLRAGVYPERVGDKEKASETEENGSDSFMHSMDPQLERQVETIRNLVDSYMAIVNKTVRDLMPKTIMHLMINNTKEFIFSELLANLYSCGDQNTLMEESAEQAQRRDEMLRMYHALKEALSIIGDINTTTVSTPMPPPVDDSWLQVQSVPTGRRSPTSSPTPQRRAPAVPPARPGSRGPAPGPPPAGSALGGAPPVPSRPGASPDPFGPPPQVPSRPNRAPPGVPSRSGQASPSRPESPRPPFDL
From the text: Recombinant dynamin I was used only for the data in Table 2. The dynamin antibodies were from: Dynamin I—in‐house YF2 antibodies, raised in rabbits against two different synthetic peptides: dynamin I 629‐647 ([…]) and dynamin I 765–778 ([…]), used at 1/2000 dilution, as previously described 53; Dynamin II—Santa Cruz (C‐18, sc‐6400, used at 1/1000) and Dynamin III—Santa Cruz (P‐13, sc‐69472, used at 1/500 dilution).
The Malachite Green colorimetric GTPase assay was as described 10. Dynamin I activity was measured in its SAI activity state or was stimulated by three different methods. As each stimulus activates dynamin to different extents, each assay required different dynamin concentrations. First, maximal dynamin activity was stimulated by sonicated PS liposomes 10. […] Finally, dynamin (500 nM) SAI activity was measured using high concentrations of dynamin, which promote its cooperative self‐assembly into rings (but not helices) 26. […] After the Vmax and Km values were determined, the data were transformed using the Lineweaver–Burke equation, 1/v = 1/Vmax + (Km/Vmax)(1/[S]).

[3] = system: dynamin; parameters: method as in PMID 19459681; conditions: read-out: dynamin inhibitor potency; cited from earlier work

Structure (SMILES) | CME IC50 (μM) [1] | IC50 [1] | other results
O=C(N/N=C/c1ccc(O)cc1O)c1cc2ccccc2cc1O [1a, (E)-N'-(2,4-Dihydroxybenzylidene)-3-hydroxy-2-naphthohydrazide] | little or no effect; also recorded: Not active (n = 3) |  | detergent (Tween) sensitivity: fold potency change on removal of Tween [2]: < 10 fold
O=C(N/N=C/c1ccc(O)c(O)c1O)c1cc2ccccc2cc1O [3a, (E)-3-Hydroxy-N'-(2,3,4-trihydroxybenzylidene) -2-naphthohydrazide] |  | 9.8 ± 1.5 µM | 
O=C(N/N=C/c1cc(O)c(O)c(O)c1)c1cc2ccccc2cc1O [5a, (E)-3-Hydroxy-N'-(3,4,5-trihydroxybenzylidene) -2-naphthohydrazide] |  | 6.2 ± 2 µM | times more potent than dynasore in CME assay ([1]; same conditions, U2OS Tfn uptake): six times more potent
O=C(N/N=C/c1cc(O)cc(O)c1)c1cc2ccccc2cc1O [8a, (E)-N'-(3,5-Dihydroxybenzylidene)-3-hydroxy-2-naphthohydrazide] |  | 179 ± 20 µM | 
CC(=O)Nc1ccc(/C=N/NC(=O)c2cc3ccccc3cc2O)cc1 [10a, (E)-N-(4-{[2-(3-hydroxy-2-naphthoyl)hydrazono]methyl}phenyl)acetamide] | Not active (n = 2) |  | 
Cc1[nH]c2ccccc2c1/C=N/NC(=O)c1cc2ccccc2cc1O [11a, (E)-3-hydroxy-N'-((2-methyl-1H-indol-3-yl)methylene)-2-naphthohydrazide] |  | 63.4 ± 4.4 µM | 
O=C(NN=Cc1cnc2ccccc2n1)c1cc2ccccc2cc1O [12a, 3-Hydroxynaphthalene-2-carboxylic acid quinoxaline-2-ylmethylenehydrazide] | Not active (n = 2) |  | 
O=C(N/N=C/c1ccc2nonc2c1)c1cc2ccccc2cc1O [13a, (E)-N'-(benzo[c][1,2,5]oxadiazol-5-ylmethylene)-3-hydroxy-2-naphthohydrazide] | Not active (n = 3) |  | 
O=C(N/N=C/c1ccc2nsnc2c1)c1cc2ccccc2cc1O [14a, (E)-N'-(benzo[c][1,2,5]thiadiazol-5-ylmethylene)-3-hydroxy-2-naphthohydrazide] | no effect; also recorded: Not active (n = 4) |  | 
CCCCCCCCNC(=O)C(C#N)=Cc1cn(CCN(C)C)c2ccccc12 [Dynole 34‐2, 2‐cyano‐3‐(1‐(2‐(dimethylamino)ethyl)‐1H‐indol‐3‐yl)‐N‐octylacrylamide] |  |  | IC50 [3]: 1.3 ± 0.3 µM
